Data as given in PubChem BioAssay AID1963834 (Molecular Pharmacology Branch, DTP, NCI, 2024).

System: 873145-292-R-J1-PDC complex spheroid viability
Test: Anticancer human tumor 873145-292-R-J1-PDC patient-derived renal clear cell carcinoma cell line growth inhibition [POLQ]
Conditions: for IC50: curve of first compound; for viability, T/C: stronger effect = lower value
Procedure: Multicellular complex tumor spheroid response to Polymerase (POL) inhibitors (novobiocin, ART-558, RP6685) in combination with a variety of drugs and investigational agents in selected tumor cell lines
The POL inhibitors (novobiocin, ART-558, and RP6685) were evaluated both individually and in combination with standard of care and investigational anticancer small molecules within a complex spheroid model of solid tumors. . Complex spheroids include a stromal component modeled by human endothelial cells (HUVEC) and fibroblasts modeled by human mesenchymal stem cells (MSCs). The concentration ranges selected for each drug and investigational agent were based upon clinically achievable concentrations if the clinical Cmax of the agent was known.
Compounds. The drugs and investigational agents: novobiocin (NSC847541), ART-558 (NSC835418), RP-6685 (NSC848927), peposertib (NSC802822), ceralasertib (NSC780249), elimusertib (NSC800525), camonsertib (NSC841442), AZD-1390 (NSC803789), olaparib (NSC753686), talazoparib (NSC767125), rucaparib (NSC756644), sotorasib (NSC818433), MRTX-1133 (NSC836407), SN-38 (NSC673596), topotecan (NSC609699), epotoside (NSC141540), doxorubicin (NSC123127), gemcitabine (NSC613327), 5-fluorouracil (NSC19893), paclitaxel (NSC125973), vemurafenib (NSC761431), MSA-2 (NSC828583), SN-011 (NSC837082), adavosertib (NSC754352), prexasertib (NSC758257), carboplatin (NSC241240) and oxaliplatin (NSC266046), were obtained from the National Cancer Institute (NCI) Developmental Therapeutics Program Chemical Repository (21). The FDA-approved anticancer drug set is available from the Developmental Therapeutics Program at https://dtp.cancer.gov/organization/dscb/obtaining/. […] The stock solutions were prepared in dimethyl sulfoxide (DMSO, Sigma-Aldrich, St. Louis, MO, cat. D2650), except for the platinum compounds which were prepared in saline (Quality Biological, Gaithersburg, MD, cat. 114-055-101), at 800-fold the tested concentration and stored at -70 degrees C prior to their use. All drugs and investigational agents were tested over a range starting from a high concentration at or near the clinical Cmax and decreasing in half-log increments. If the clinical Cmax for an agent had not been determined, the highest concentration tested was 10 microM, except for SN-38, which was tested at a high concentration of 1 microM.
Cell Culture. All cells were maintained in an incubator at 37 degrees C and 5% CO2 with 95% humidity. The PDC lines were cultured according to standard operating procedures established by the NCI PDMR (https://pdmr.cancer.gov). Table 3 of the manuscript, lists the cell lines along with the number of the three cell types plated to form the mct-spheroids and media for tumor cell growth. After thawing, all PDC lines, except 997537-175-T-J1-PDC and 415267-285-R-J2-PDC, were cultured in Matrigel-coated flasks prepared with a working solution of 1X Ham's F-12 nutrient mix, without supplementation (Thermo Fisher Scientific, cat. 11765054), 100 U/mL penicillin-streptomycin (Thermo Fisher Scientific, cat. 15140122), and 2.5% Matrigel (Corning Inc., Corning, NY, cat. 354248) for the first three passages. The two PDC lines 997537-175-T-J1-PDC and 415267-285-R-J2-PDC were cultured on uncoated flasks. The 857933-349-R-J2-PDC line was cultured in 6C/Colon 1B media containing advanced DMEM/F-12 (Thermo Fisher Scientific, cat. 12634028), 10 mM HEPES (Thermo Fisher Scientific, cat. 15630080), 1X GlutaMAX supplement (Thermo Fisher Scientific, cat. 35050061), 0.1 mg/mL primocin (InvivoGen, San Diego, CA, cat. ant-pm-2), 10% defined fetal bovine serum, heat inactivated (HyClone Laboratories Inc., Logan, UT, cat. SH30070.03HI), 50% L-WRN conditioned media (ATCC, cat. CRL-3276), 1.25 mM N-Acetyl-L-cysteine (Sigma-Aldrich, cat. A9165), 10 mM nicotinamide (Sigma-Aldrich, cat. N0636), 1X B-27 supplement (Thermo Fisher Scientific, cat. 17504044), 1X N-2 supplement (Thermo Fisher Scientific, cat. […]
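Also: spheroids exposed to compounds for 7 days before viability readout.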
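For viability, T/C in this document: luminescence signal used as surrogate for viable cell content; 100% = DMSO vehicle control viability.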

## CC(=O)O[C@H]1C(=O)[C@@]2(C)[C@H]([C@H](OC(=O)c3ccccc3)[C@]3(O)C[C@H](OC(=O)[C@H](O)[C@@H](NC(=O)c4ccccc4)c4ccccc4)C(C)=C1C3(C)C)[C@]1(OC(C)=O)CO[C@@H]1C[C@@H]2O + Nc1ccc(C#CCN(C(=O)Cc2ncc(C(F)(F)F)cc2C(F)(F)F)c2ccc(F)cc2)nn1
Second compound 0.0316 µM
  IC50: > 3 µM
Second compound 0.1 µM
  IC50: > 3 µM
Second compound 0.316 µM
  IC50: > 3 µM
Second compound 1 µM
  IC50: > 3 µM
Second compound 3.16 µM
  IC50: > 3 µM
Second compound 10 µM
  IC50: > 3 µM
Second compound 0.0316 µM, first compound 0.00949 µM
  viability, T/C: 89.1%
Second compound 0.0316 µM, first compound 0.03 µM
  viability, T/C: 85.9%
Second compound 0.0316 µM, first compound 0.0949 µM
  viability, T/C: 79.5%
Second compound 0.0316 µM, first compound 0.3 µM
  viability, T/C: 72.9%
Second compound 0.0316 µM, first compound 0.949 µM
  viability, T/C: 67.6%
Second compound 0.0316 µM, first compound 3 µM
  viability, T/C: 71.2%
Second compound 0.1 µM, first compound 0.00949 µM
  viability, T/C: 85.4%
Second compound 0.1 µM, first compound 0.03 µM
  viability, T/C: 90.2%
Second compound 0.1 µM, first compound 0.0949 µM
  viability, T/C: 71.8%
Second compound 0.1 µM, first compound 0.3 µM
  viability, T/C: 68.3%
Second compound 0.1 µM, first compound 0.949 µM
  viability, T/C: 68.8%
Second compound 0.1 µM, first compound 3 µM
  viability, T/C: 65%
Second compound 0.316 µM, first compound 0.00949 µM
  viability, T/C: 90.3%
Second compound 0.316 µM, first compound 0.03 µM
  viability, T/C: 84.6%
Second compound 0.316 µM, first compound 0.0949 µM
  viability, T/C: 68.1%
Second compound 0.316 µM, first compound 0.3 µM
  viability, T/C: 68.8%
Second compound 0.316 µM, first compound 0.949 µM
  viability, T/C: 66.9%
Second compound 0.316 µM, first compound 3 µM
  viability, T/C: 62.8%
Second compound 1 µM, first compound 0.00949 µM
  viability, T/C: 85.2%
Second compound 1 µM, first compound 0.03 µM
  viability, T/C: 71.5%
Second compound 1 µM, first compound 0.0949 µM
  viability, T/C: 72.7%
Second compound 1 µM, first compound 0.3 µM
  viability, T/C: 70.7%
Second compound 1 µM, first compound 0.949 µM
  viability, T/C: 70.7%
Second compound 1 µM, first compound 3 µM
  viability, T/C: 68.7%
Second compound 3.16 µM, first compound 0.00949 µM
  viability, T/C: 87%
Second compound 3.16 µM, first compound 0.03 µM
  viability, T/C: 73.7%
Second compound 3.16 µM, first compound 0.0949 µM
  viability, T/C: 72.3%
Second compound 3.16 µM, first compound 0.3 µM
  viability, T/C: 72.3%
Second compound 3.16 µM, first compound 0.949 µM
  viability, T/C: 71.8%
Second compound 3.16 µM, first compound 3 µM
  viability, T/C: 69%
Second compound 10 µM, first compound 0.00949 µM
  viability, T/C: 81.1%
Second compound 10 µM, first compound 0.03 µM
  viability, T/C: 75.5%
Second compound 10 µM, first compound 0.0949 µM
  viability, T/C: 74.8%
Second compound 10 µM, first compound 0.3 µM
  viability, T/C: 67.1%
Second compound 10 µM, first compound 0.949 µM
  viability, T/C: 65.7%
Second compound 10 µM, first compound 3 µM
  viability, T/C: 74%

## CNCc1ccc(-c2[nH]c3cc(F)cc4c3c2CCNC4=O)cc1 + COC1C(OC(N)=O)C(O)C(Oc2ccc3c(O)c(NC(=O)c4ccc(O)c(CC=C(C)C)c4)c(=O)oc3c2C)OC1(C)C
Second compound 0.0316 µM
  IC50: > 10 µM
Second compound 0.1 µM
  IC50: > 10 µM
Second compound 0.316 µM
  IC50: > 10 µM
Second compound 1 µM
  IC50: > 10 µM
Second compound 3.16 µM
  IC50: > 10 µM
Second compound 10 µM
  IC50: > 10 µM
Second compound 0.0316 µM, first compound 0.0316 µM
  viability, T/C: 106%
Second compound 0.0316 µM, first compound 0.1 µM
  viability, T/C: 96.8%
Second compound 0.0316 µM, first compound 0.316 µM
  viability, T/C: 102%
Second compound 0.0316 µM, first compound 1 µM
  viability, T/C: 96.7%
Second compound 0.0316 µM, first compound 3.16 µM
  viability, T/C: 90.7%
Second compound 0.0316 µM, first compound 10 µM
  viability, T/C: 91.6%
Second compound 0.1 µM, first compound 0.0316 µM
  viability, T/C: 97%
Second compound 0.1 µM, first compound 0.1 µM
  viability, T/C: 97.8%
Second compound 0.1 µM, first compound 0.316 µM
  viability, T/C: 88%
Second compound 0.1 µM, first compound 1 µM
  viability, T/C: 95.6%
Second compound 0.1 µM, first compound 3.16 µM
  viability, T/C: 88%
Second compound 0.1 µM, first compound 10 µM
  viability, T/C: 98.3%
Second compound 0.316 µM, first compound 0.0316 µM
  viability, T/C: 94.9%
Second compound 0.316 µM, first compound 0.1 µM
  viability, T/C: 89.4%
Second compound 0.316 µM, first compound 0.316 µM
  viability, T/C: 95.8%
Second compound 0.316 µM, first compound 1 µM
  viability, T/C: 89.2%
Second compound 0.316 µM, first compound 3.16 µM
  viability, T/C: 96.1%
Second compound 0.316 µM, first compound 10 µM
  viability, T/C: 104%
Second compound 1 µM, first compound 0.0316 µM
  viability, T/C: 90.4%
Second compound 1 µM, first compound 0.1 µM
  viability, T/C: 98.5%
Second compound 1 µM, first compound 0.316 µM
  viability, T/C: 118%
Second compound 1 µM, first compound 1 µM
  viability, T/C: 86.7%
Second compound 1 µM, first compound 3.16 µM
  viability, T/C: 95.7%
Second compound 1 µM, first compound 10 µM
  viability, T/C: 102%
Second compound 3.16 µM, first compound 0.0316 µM
  viability, T/C: 99.5%
Second compound 3.16 µM, first compound 0.1 µM
  viability, T/C: 95.8%
Second compound 3.16 µM, first compound 0.316 µM
  viability, T/C: 98.4%
Second compound 3.16 µM, first compound 1 µM
  viability, T/C: 92.2%
Second compound 3.16 µM, first compound 3.16 µM
  viability, T/C: 98.1%
Second compound 3.16 µM, first compound 10 µM
  viability, T/C: 96.1%
Second compound 10 µM, first compound 0.0316 µM
  viability, T/C: 98.5%
Second compound 10 µM, first compound 0.1 µM
  viability, T/C: 101%
Second compound 10 µM, first compound 0.316 µM
  viability, T/C: 92.4%
Second compound 10 µM, first compound 1 µM
  viability, T/C: 94.7%
Second compound 10 µM, first compound 3.16 µM
  viability, T/C: 98.5%
Second compound 10 µM, first compound 10 µM
  viability, T/C: 102%
